Key:
[1] = test system: Healthy Normal Volunteers; experiment: Urinary glucose excretion over 24 hr in healthy normal volunteers after single doses of SGLT2 inhibitors; format: in vivo, human; details: healthy subjects; 5, 20, 50 or 100 mg; compared to GSK 869,682; FIG. 1
[2] = test system: type 2 diabetic patients
Text: C-aryl glucoside SGLT2 inhibitors are known to reduce blood glucose levels in diabetic patients, see U.S. Pat. No. 6,774,112, which is incorporated herein by reference in its entirety, but not known to increase urine volume. […] Metformin reduces plasma glucose concentration by non-renal mechanisms and is not known to induce glucosuria. […] On day 1 and day 14, the patients were examined for the levels of glucosuria and changes in urine volumes. […] Patients' serum uric acid levels were not measured in this experiment.

[3] = test system: diabetic patients; experiment: 12-week treatment of diabetic patients: urine glucose, HbA1C, urine volume, serum uric acid; format: in vivo, human; details: for Uric Acid (change in serum uric acid), mean ± standard deviation: 12 week treatment
[4] = test system: patients with diabetes; details: 5, 25, or 100 mg, FIG. 2
Text: The levels of urine glucose of all subjects are shown in the plot and the mean urine glucose is in the darker lines.

[5] = test system: SGLT2 relative to SGLT-1; details: ratio of EC50 in SGLT1 and SGLT2 assay
Text: Selectivity for SGLT2 of a given inhibitor can be determined by comparing the EC50 values measured in the SGLT1 and SGLT2 assay. […] The hSGLT1 and hSGLT2 sequences were cloned into pIRESneo vector (Clontech, Mountain View, Calif.) for mammalian expression and were stably transfected into Chinese hamster ovary (CHO) cells. SGLT-expressing clones were selected based on resistance to G418 antibiotic (GENETICIN®, Invitrogen, Carlsbad, Calif.) and activity in the ^14C-α-methyl-D-glucopyranoside (^14C-AMG) uptake assay.
Cells expressing hSGLT1 or hSGLT2 were maintained using standard cell culture techniques. […] Sodium-dependent ^14C-AMG uptake was calculated by subtracting the counts per minute (CPM) observed under sodium-free uptake conditions from the counts observed under sodium-containing conditions. Inhibitors were assayed at various concentrations in triplicate in the presence of sodium, and the percent inhibition was calculated by comparing CPM in inhibitor-containing wells with CPM in wells containing only DMSO vehicle. Phlorizin, a known SGLT inhibitor, was evaluated in parallel in every assay. […]

## CCOc1ccc(Cc2cc([C@@H]3O[C@H](CO)[C@@H](O)[C@H](O)[C@H]3O)ccc2Cl)cc1 [dapagliflozin PGS, dapagliflozin (S)-propylene glycol solvate]
[1]
  Glucosuric effect (glucose excretion/day within 24 hours), loss of calories in urine: significant loss of calories in the urine
[2]; two-week period
  Fasting serum glucose (FSG) levels: Dose-dependent reduction
  Postprandial glucose levels in oral glucose tolerance tests (OGTT): reduced postprandial glucose levels
  Urine volumes: no increase in urine volumes was apparent
[2]; vs placebo, FIG. 3
  Urinary glucose levels within a 24-hour time period: increased
[3]; 2.5 mg
  Uric Acid (change in serum uric acid), mean ± standard deviation: -1.03 ± 0.81 mg/dL
[3]; 5 mg
  Uric Acid (change in serum uric acid), mean ± standard deviation: -1.12 ± 0.84 mg/dL
[3]; 10 mg
  Uric Acid (change in serum uric acid), mean ± standard deviation: -0.98 ± 0.66 mg/dL
[3]; 20 mg
  Uric Acid (change in serum uric acid), mean ± standard deviation: -1.13 ± 0.78 mg/dL
[3]; 50 mg
  Uric Acid (change in serum uric acid), mean ± standard deviation: -1.14 ± 1.15 mg/dL
[3]; diabetic patients, 2.5-50 mg, after 12 weeks of treatment
  OGT: improved OGT
[3]; diabetic patients, all doses, after 12 weeks treatment
  Average of decrease in serum uric acid levels: approximately 1 g/dL
[4]
  Urine glucose excretion compared to placebo: higher levels of urine glucose excretion

## CCOc1ccc(Cc2cc([C@@H]3O[C@H](CO)[C@@H](O)[C@H](O)[C@H]3O)ccc2Cl)cc1 [dapagliflozin]
[5]
  Selectivity for SGLT2 relative to SGLT-1: High selectivity for SGLT2

## CN(C)C(=N)N=C(N)N [metformin, reference compound]
[3]; metformin group
  Uric Acid (change in serum uric acid), mean ± standard deviation: 0.18 ± 0.53 mg/dL
[3]; diabetic patients, 1500 mg metformin
  Reduced HbA1C levels: 0.73%

From US8791077B2, “Method for treating hyperuricemia employing an SGLT2 inhibitor and composition containing same” (AstraZeneca AB, priority 2008, dated 2014)
